Source: US6890969B2, “Polymer emulsion preservation using cationic compounds” (Air Products Polymers, L.P., priority 2000, dated 2005)
Read-outs that look alike come from different tables or passages of the source.

Legend:
GABL = GABL biochallenge test of preserved polymer emulsions (streak plate / RABIT), inoculations passed; type: cell-based, Gluconoacetobacter liquefaciens; settings: for Inoculations Passed: PVOH-stabilized VAE emulsion, Tg 0 °C, <1000 ppm vinyl acetate; for preservative efficacy against GABL (in words): dosages similar to 200 ppm, failing immediately after the initial GABL inoculation; for preservative quality against GABL compared with cationic compounds (in words): common industrial biocides, CIT/MIT limited to 50 ppm, DBNPA to 100 ppm; for efficacy against GABL (in words): even at doses of 450 and 500 ppm
Protocol: GABL Inoculum Preparation
A recently isolated culture of GABL was grown on potato dextrose agar slants by inoculating the agar surface. The potato dextrose agar slants were incubated for 48-72 hours at 25° C. After this incubation period, GABL cells were harvested using quarter strength Ringers solution to wash the GABL colonies off of the agar surface. The washings from each slant were combined into one sterile, Erlenmeyer flask. The number of slants and the amount of quarter strength Ringers solution used to wash off the GABL colonies was adjusted during the procedure to obtain a final microbial viable count in the range of 10^8-10^10 CFU/mL.
Rapid Automated Bacterial Impedance Technique (RABIT): supplied by Microbiology International, manufactured by Don Whitley Scientific, Ltd.
RABIT utilizes the principal of impedance microbiology to detect and assess microbial activity in a given sample. Using the RABIT, microbial metabolism is monitored by measuring the amount of carbon dioxide produced by actively respiring microorganisms. The electrodes in the RABIT test cells are partially covered with alkaline agar containing potassium hydroxide. As inoculated test samples are monitored on the RABIT, carbon dioxide produced from microbial metabolism is absorbed by the alkaline agar resulting in a change in conductivity. Conductivity is monitored with time and the time to reach a pre-specified rate of reduction in conductivity is termed the time to detection (TTD). Therefore, the shorter the TTD, the higher the number of microorganisms present. Failure can be defined as three successive decreases in conductivity equal to or greater than a pre-specified value (−10 microSiemens is recommended by the manufacturer) at any time during the 72 hour RABIT monitoring period. Alternatively, failure can be defined as a pre-specified total change in conductivity.
Biochallenge Test Procedure
Samples (50 g each) of each test emulsion containing a test antimicrobial agent were inoculated with 1.0 mL of the GABL inoculum. After mixing well, the samples were then placed in a 30° C. incubator. After 1, 2, and 6 days of incubation each sample was streak plated onto potato dextrose agar to assess the level of surviving GABL microorganisms. The potato dextrose agar plates were incubated at 25° C. for 48-72 hours before assessing the growth. On the seventh day of incubation, each test emulsion sample was inoculated again with a freshly prepared GABL inoculum, mixed well, then placed back into the incubator. The samples were again streak plated onto potato dextrose agar after incubating for 1, 2, and 6 days since the second inoculation. On the fourteenth day after the test was initiated, the test emulsions were inoculated a third time with another freshly prepared GABL inoculum and then placed back into the incubator. The samples were again streak plated onto potato dextrose agar after 1, 2, 6, and 13 days of incubation since the third inoculation to assess surviving microorganisms. Test failure is defined as a microbial viable count >300 CFU/10 μL observed from the potato dextrose agar streak plate assessments.
Biochallenge Test Procedure Via the RABIT
A small amount of a microbial nutrient was added to each emulsion test sample (50 g) containing a test antimicrobial agent. The resulting samples were then inoculated with 1.0 mL of the GABL inoculum. After mixing well, an aliquot (5 g) of each test sample was placed into separate RABIT indirect conductivity tubes. The indirect conductivity tubes were then placed into the RABIT incubator modules set at 30° C. and the conductivity changes monitored for up to 72 hours. The remainder of each test sample was stored in a 30° C. incubator during the RABIT monitoring period. At the completion of the RABIT monitoring period, the aliquot samples were placed back into their respective sample containers. Each test sample was then re-inoculated with a freshly prepared GABL inoculum. […]

mixed bacterial pool = type: cell-based; settings: PVOH-stabilized VAE emulsion Tg 0, <1000 ppm vinyl acetate
Protocol: The preservative efficacy of several cationic compounds in a poly(vinyl alcohol)-stabilized VAE copolymer emulsion (Tg=0) containing less than 1000 ppm vinyl acetate was assessed according to the following procedure:
Aeromonas hydrophilia, Alcaligenes faecalis, Corynebacterium ammoniagenes, Enterobacter aerogenes, Escherichia coli, Klebsiella pneumoniae, Pseudomonas aeruginosa, Proteus vulgaris, Providencia rettgeri, Pseudomonas stutzeri, Shewanella putrefaciens, Serratia liquefaciens, Acinetobacter baumannii, Burkholderia cepacia, Chryseobacterium meningosepticum, Sphingobacterium spiritivorum, Ralstonia pickettii, and GABL.
Mixed Bacterial Pool Inoculum Preparation
Each bacterial culture was individually grown on nutrient agar slants, except GABL was grown on potato dextrose agar slants, by inoculating the agar surfaces. The nutrient agar slants were incubated for 24-48 hours at 30° C. and the potato dextrose agar slants were incubated for 48-72 hours at 25° C. After this incubation period, the cells were harvested using quarter strength Ringers solution to wash the bacterial colonies off the agar surface. The washings from all of the slants were combined into one sterile, Erlenmeyer flask. The number of slants and the amount of Ringers Solution used to wash off the bacterial colonies is adjusted during the procedure to obtain a final mixed microbial viable count in the range of 10^8-10^10 CFU/mL.
Bacterial Biochallenge Test Procedure
The RABIT procedures were followed as described in Example 1, except the mixed bacterial pool inoculum was used to inoculate the test samples instead of the GABL inoculum.

CCCCCCCCCC[N+](C)(C)CCCCCCCCCC.[Cl-] [BTC ® 1010, Didecyldimethylammonium chloride]
Inoculations Passed (GABL; biocide dosage 200 ppm active, listed as BTC 1010): 3

CCCCCCCCCCCCCCCC[n+]1ccccc1 [CPC, cetylpyridinium chloride, reference compound]
Inoculations Passed (GABL; biocide dosage 100 ppm active): 0
Inoculations Passed (GABL; biocide dosage 250 ppm active): 2
Inoculations Passed (GABL; biocide dosage 300 ppm active): 5
Inoculations Passed (mixed bacterial pool; active biocide dosage 300 ppm): 5
Inoculations Passed (mixed bacterial pool; active biocide dosage 400 ppm): 7

CCCCCCCCCCCCCCCC[N+](C)(C)C.[Br-] [CTAB, cetyltrimethylammonium bromide]
Inoculations Passed (GABL; biocide dosage 300 ppm active): 1
preservative efficacy against GABL (in words) (GABL): ineffective

CC(=O)O.CC(=O)O.NC(=N\CCCCCC/N=C(N)/N=C(\N)Nc1ccc(Cl)cc1)/N=C(\N)Nc1ccc(Cl)cc1 [Chlorhexidine diacetate, reference compound]
Inoculations Passed (GABL; biocide dosage 400 ppm active): 0

N=C(NCCCCCCNC(=N)NC(=N)Nc1ccc(Cl)cc1)NC(=N)Nc1ccc(Cl)cc1.O=C(O)[C@H](O)[C@@H](O)[C@H](O)[C@H](O)CO.O=C(O)[C@H](O)[C@@H](O)[C@H](O)[C@H](O)CO [Chlorhexidine digluconate, reference compound]
Inoculations Passed (GABL; biocide dosage 250 ppm active): 0

N#CCCC(Br)(C#N)CBr (stereo not shown) [DBDCB, 1,2-dibromo-2,4-dicyanobutane, reference compound]
Inoculations Passed (GABL; biocide dosage 450 ppm active): 0
preservative quality against GABL compared with cationic compounds (in words) (GABL): inferior preservatives
efficacy against GABL (in words) (GABL): ineffective

N#CC(Br)(Br)C(N)=O [DBNPA, 2,2-dibromo-3-nitrilo-propionamide, reference compound]
Inoculations Passed (GABL; biocide dosage 100 ppm active): 0
preservative quality against GABL compared with cationic compounds (in words) (GABL): inferior preservatives
efficacy against GABL (in words) (GABL): ineffective

O=CCCCC=O [Glutaraldehyde, reference compound]
Inoculations Passed (GABL; biocide dosage 500 ppm active): 0
preservative quality against GABL compared with cationic compounds (in words) (GABL): inferior preservatives
efficacy against GABL (in words) (GABL): ineffective

NCC(=O)O [Glycine]
Inoculations Passed (GABL; biocide dosage 500 ppm active): 0

CCCCCCCCCC[N+](C)(C)CCCCCCCCCC.[Cl-] [TPI ® 1716, Didecyldimethylammonium chloride]
Inoculations Passed (GABL; biocide dosage 100 ppm active): 0
Inoculations Passed (GABL; biocide dosage 200 ppm active, listed as TPI 1716): 2
Inoculations Passed (GABL; biocide dosage 300 ppm active): ≧5

CC(C)[C@H](N)C(=O)O [Valine]
Inoculations Passed (GABL; biocide dosage 1000 ppm active): 0

[H]/N=C(\N/C(=N/[H])NCCCCCCNC(=N)NC(=N)Nc1ccc(Cl)cc1)Nc1ccc(Cl)cc1 [chlorhexidine, reference compound]
preservative efficacy against GABL (in words) (GABL): ineffective

Benzalkonium chloride [TPI ® 1717]
Inoculations Passed (GABL; biocide dosage 200 ppm active): 0
Inoculations Passed (GABL; biocide dosage 300 ppm active): 0

Tetrakis(hydroxymethyl) phosphonium sulfate [Tolcide ® PS]
Inoculations Passed (GABL; biocide dosage 500 ppm active): 0
